Assays:
[1] = 100 kPa, Liquid; for viscosity: Concentric cylinders viscometry; for mass density: Vibrating tube method
[2] = xn = mol fraction of the nth substance listed; details: 100 kPa, Liquid; for viscosity: Concentric cylinders viscometry; for mass density: Vibrating tube method

C[n+]1ccn(CCO)c1.F[B-](F)(F)F [1-(2-hydroxyethyl)-3-methylimidazolium tetrafluoroborate]
[1]
Details | mass density [kg/m3] | viscosity [mPa·s]
293.15 K | 1362.4 | 153.6
298.15 K | 1358.7 | 115.1
303.15 K | 1354.8 | 87.98
308.15 K | 1351.2 | 68.59
313.15 K | 1347.4 | 54.81
318.15 K | 1343.7 | 44.44
323.15 K | 1340.1 | 36.5
328.15 K | 1336.4 | 30.46
333.15 K | 1332.8 | 25.73
338.15 K | 1329.2 | 21.98
343.15 K | 1325.5 | 18.95

CCCCn1cc[n+](C)c1.F[B-](F)(F)F [1-butyl-3-methylimidazolium tetrafluoroborate]
[1]
Details | mass density [kg/m3] | viscosity [mPa·s]
293.15 K | 1204 | 141.1
298.15 K | 1200.5 | 107.5
303.15 K | 1197 | 83.48
308.15 K | 1193.4 | 65.97
313.15 K | 1189.9 | 53
318.15 K | 1186.3 | 43.21
323.15 K | 1182.8 | 35.7
328.15 K | 1179.3 | 29.86
333.15 K | 1175.8 | 25.26
338.15 K | 1172.3 | 21.59
343.15 K | 1168.9 | 18.62

CCCCn1cc[n+](C)c1.F[B-](F)(F)F [1-butyl-3-methylimidazolium tetrafluoroborate] + CCCC[n+]1ccccc1.F[B-](F)(F)F
[2], x1 = 1
Details | mass density [kg/m3] | viscosity [mPa·s]
293.15 K | 1204 | 141.1
298.15 K | 1200.5 | 107.5
303.15 K | 1197 | 83.48
308.15 K | 1193.4 | 65.97
313.15 K | 1189.9 | 53
318.15 K | 1186.3 | 43.21
323.15 K | 1182.8 | 35.7
328.15 K | 1179.3 | 29.86
333.15 K | 1175.8 | 25.26
338.15 K | 1172.3 | 21.59
343.15 K | 1168.9 | 18.62

CCCCn1cc[n+](C)c1.F[B-](F)(F)F [1-butyl-3-methylimidazolium tetrafluoroborate] + C[n+]1ccn(CCO)c1.F[B-](F)(F)F
[2], x2 = 0
Details | mass density [kg/m3] | viscosity [mPa·s]
293.15 K | 1204 | 141.1
298.15 K | 1200.5 | 107.5
303.15 K | 1197 | 83.48
308.15 K | 1193.4 | 65.97
313.15 K | 1189.9 | 53
318.15 K | 1186.3 | 43.21
323.15 K | 1182.8 | 35.7
328.15 K | 1179.3 | 29.86
333.15 K | 1175.8 | 25.26
338.15 K | 1172.3 | 21.59
343.15 K | 1168.9 | 18.62

CCCC[n+]1ccccc1.F[B-](F)(F)F [1-butylpyridinium tetrafluoroborate]
[1]
Details | mass density [kg/m3] | viscosity [mPa·s]
293.15 K | 1216.6 | 228.9
298.15 K | 1213.1 | 166.9
303.15 K | 1209.6 | 124.5
308.15 K | 1206.2 | 94.97
313.15 K | 1202.8 | 73.94
318.15 K | 1199.4 | 58.64
323.15 K | 1196 | 47.29
328.15 K | 1192.6 | 38.71
333.15 K | 1189.2 | 32.12
338.15 K | 1185.8 | 26.98
343.15 K | 1182.5 | 22.97

CCCC[n+]1ccccc1.F[B-](F)(F)F [1-butylpyridinium tetrafluoroborate] + C[n+]1ccn(CCO)c1.F[B-](F)(F)F
[2], x2 = 0
Details | mass density [kg/m3] | viscosity [mPa·s]
293.15 K | 1216.6 | 228.9
298.15 K | 1213.1 | 166.9
303.15 K | 1209.6 | 124.5
308.15 K | 1206.2 | 94.97
313.15 K | 1202.8 | 73.94
318.15 K | 1199.4 | 58.64
323.15 K | 1196 | 47.29
328.15 K | 1192.6 | 38.71
333.15 K | 1189.2 | 32.12
338.15 K | 1185.8 | 26.98
343.15 K | 1182.5 | 22.97

From the NIST ThermoML archive (doi:10.1016/j.jct.2014.05.016)
